In patent US7482365B2, “Piperidylcarboxamide derivatives and their use in the treatment of tachykinin-mediated diseases” (Glaxo Group Limited, priority 2002, dated 2009):

| SMILES | melting point [°C] |
| --- | --- |
| Cc1cc(F)ccc1[C@H]1C[C@@H](N(C)C)CCN1C(=O)N(C)Cc1cc(C(F)(F)F)cc(C(F)(F)F)c1.Cl | 147 to 150 |
| Cc1cc(F)ccc1[C@H]1C[C@H](N(C)C)CCN1C(=O)N(C)Cc1cc(C(F)(F)F)cc(C(F)(F)F)c1.Cl | 180 to 183 |
| Cc1cc(F)ccc1[C@H]1C[C@H](NCC(N)=O)CCN1C(=O)N(C)Cc1cc(C(F)(F)F)cc(C(F)(F)F)c1.Cl | 130 to 131 |
| Cc1cc(F)ccc1[C@H]1C[C@@H](NCC(N)=O)CCN1C(=O)N(C)Cc1cc(C(F)(F)F)cc(C(F)(F)F)c1.Cl | 100 to 101 |
| Cc1cc(F)ccc1[C@H]1C[C@H](NCCF)CCN1C(=O)N(C)Cc1cc(C(F)(F)F)cc(C(F)(F)F)c1.Cl | 145 to 146 |
